In ChEMBL document CHEMBL6120988, “Mitochondria-targeting artesunate-rhein conjugates: Linker-modulated cell-permeability, heme-affinity and anticancer activity” (Eur J Med Chem, 2025):
Calls of active or inactive are those of the source. The calls are words filed in the database; no cut-off is given here.

Legend:
[1] = Toxicity against female BALB/c mouse allografted with mouse 4T1 cells assessed as effect on white blood cells at 100 mg/kg, po administrated every day for 15 times and measured after 22 days; assay type: organism-based; conditions: in vivo, 528 h, time 22 day
[2] = Half life in mouse at 100 mg/kg, po; assay type: ADME, organism-based; conditions: in vivo
[3] = Toxicity in female BALB/c mouse allografted with mouse 4T1 cells assessed as effect on blood platelet at 100 mg/kg, po administrated every day for 15 times and measured after 22 days; assay type: organism-based; conditions: in vivo, 528 h, time 22 day
4T1 [4] = assay: Antitumor activity against mouse 4T1 cells allografted in female BALB/c mouse assessed as increase in nuclear shrinkage at 10 mg/kg, iv administrated every 3 day for 5 times and measured after 22 days; assay type: functional, organism-based; conditions: time 22.0 day
A549 = assay: Cytotoxicity against human A549 cells assessed as cell viability by MTT assay; assay type: functional, cell-based
4T1 [5] = assay: Induction of immunogenic cell death in mouse 4T1 cells assessed as increase in ATP release by measuring increase in red fluorescence by CLSM analysis relative to R/A group; assay type: functional, cell-based
[6] = Toxicity against female BALB/c mouse allografted with mouse 4T1 cells assessed as mean corpuscular volume at 10 mg/kg, iv administrated every 3 days for 5 times and measured after 22 days; assay type: organism-based; conditions: in vivo, 528 h, time 22 day
4T1 [7] = assay: Antitumor activity against mouse 4T1 cells allografted in female BALB/c mouse assessed as reduction in tumor tissue weight at 100 mg/kg, po administrated every day for 15 times and measured after 22 days; assay type: functional, organism-based; conditions: time 22.0 day
[8] = AUC(0 to t) in mouse iv dosed mouse; assay type: ADME, organism-based; conditions: in vivo, dose 10 mg/kg, time 3 day
MCF7 = assay: Cytotoxicity against human MCF7 cells assessed as cell viability by MTT assay; assay type: functional, cell-based
4T1 [9] = assay: Potency index, ratio of paclitaxel IC50 to test compound IC50 for cytotoxicity against mouse 4T1 cells assessed as cell viability by MTT assay; assay type: functional
4T1 [10] = assay: Induction of apoptosis in mouse 4T1 cells assessed as necrotic cells by Annexin V-FITC and PI staining based flow cytometry analysis (reference value: 0.085 %); assay type: functional
[11] = MRT (0 to infinity) in iv dosed mouse; assay type: ADME, organism-based; conditions: in vivo
[12] = Toxicity in female BALB/c mouse allografted with mouse 4T1 cells assessed as change in body weight at 10 mg/kg, iv administrated every 3 day for 5 times and measured every 2 days for 22 days relative to control; assay type: organism-based; conditions: in vivo, 528 h, time 22 day
4T1 [13] = assay: Induction of mitochondrial dysfunction in mouse 4T1 cells assessed as ATP production; assay type: functional, cell-based
4T1 [14] = assay: Antitumor activity against mouse 4T1 cells allografted in female BALB/c mouse assessed as increase in infiltration of CD3+ CD8+ T lymphocytes in tumors at 100 mg/kg, po administrated every day for 15 times and measured after 22 days by flow cytometry (reference value: 6.91 %); assay type: functional; conditions: time 22 day
4T1 [15] = assay: Induction of apoptosis in mouse 4T1 cells assessed as early apoptotic cells by Annexin V-FITC and PI staining based flow cytometry analysis(reference value: 3.60 %); assay type: functional
4T1 [16] = assay: Antitumor activity against mouse 4T1 cells allografted in female BALB/c mouse assessed as increase in infiltration of CD8+IFN-gamma+ lymphocytes in tumors at 10 mg/kg, iv administrated every day for 15 times and measured after 22 days by flow cytometry (reference value: 5.58%); assay type: functional; conditions: time 22 day
4T1 [17] = assay: Induction of immunogenic cell death in mouse 4T1 cells assessed as increase in CRT exposure on cell surface by measuring increase in red fluorescence by CLSM analysis (reference value: 2.55%); assay type: functional
4T1 [18] = assay: Induction of mitochondrial dysfunction in mouse 4T1 cells assessed as oxygen consumption rate; assay type: functional, cell-based
[19] = Toxicity against female BALB/c mouse allografted with mouse 4T1 cells assessed as effect on red blood cells at 10 mg/kg, iv administrated every 3 days for 5 times and measured after 22 days; assay type: organism-based; conditions: in vivo, 528 h, time 22 day
4T1 [20] = assay: Antitumor activity against mouse 4T1 cells allografted in female BALB/c mouse assessed as inhibition of cell proliferation at 100 mg/kg, po administrated every day for 15 times and measured after 22 days by PCNA assay; assay type: functional, organism-based; conditions: time 22.0 day
[21] = Toxicity against female BALB/c mouse allografted with mouse 4T1 cells assessed as hemoglobin at 10 mg/kg, iv administrated every 3 days for 5 times and measured after 22 days; assay type: organism-based; conditions: in vivo, 528 h, time 22 day
4T1 [22] = assay: Cytotoxicty against mouse 4T1 cells assessed as cell death by measuring red staining by calcein/PI staining based live/dead staining analysis; assay type: functional
[23] = Toxicity in female BALB/c mouse allografted with mouse 4T1 cells assessed as effect on blood platelet at 10 mg/kg, iv administrated every 3 days for 5 times and measured after 22 days; assay type: organism-based; conditions: in vivo, 528 h, time 22 day
4T1 [24] = assay: Antitumor activity against mouse 4T1 cells allografted in female BALB/c mouse assessed as increase in apoptotic cells at 100 mg/kg, po administrated every day for 15 times and measured after 22 days by TUNEL staining based assay; assay type: functional, organism-based; conditions: time 22.0 day
4T1 [25] = assay: Induction of mitochondrial dysfunction in mouse 4T1 cells assessed as basal respiration; assay type: functional, cell-based
4T1 [26] = assay: Induction of ROS production in mouse 4T1 cells assessed as increase in intracellular ROS level by […] staining based flow cytometry (reference value: 7.8%); assay type: functional
[27] = Toxicity against female BALB/c mouse allografted with mouse 4T1 cells assessed as effect on red blood cells at 100 mg/kg, po administrated every day for 15 times and measured after 22 days; assay type: organism-based; conditions: in vivo, 528 h, time 22 day
4T1 [28] = assay: Induction of immunogenic cell death in mouse 4T1 cells allografted in female BALB/c mouse assessed as increase in CD80+ CD86+CD11c+ cells DC maturation at 10 mg/kg, iv administrated every 3 days for 5 times and measured after 22 days by flow cytometry (reference value: 7.77 %); assay type: functional; conditions: time 22 day
[29] = Toxicity against female BALB/c mouse allografted with mouse 4T1 cells assessed as mean corpuscular volume at 100 mg/kg, po administrated every day for 15 times and measured after 22 days; assay type: organism-based; conditions: in vivo, 528 h, time 22 day
4T1 [30] = assay: Induction of repolarization of M2 macrophages into M1 macrophages in mouse 4T1 cells assessed as ratio of M2 to M1 macrophages; assay type: functional, cell-based
4T1 [31] = assay: Antitumor activity against mouse 4T1 cells allografted in female BALB/c mouse assessed as tumor inhibition rate at 10 mg/kg, iv administrated every 3 day for 5 times and measured after 22 days relative to control; assay type: functional; design: scale not given: the % may be the effect or the level left; conditions: time 22 day
U-87 MG = assay: Cytotoxicity against human U87 cells assessed as cell viability by MTT assay; assay type: functional, cell-based, U-87MG ATCC
[32] = Tmax in mouse iv dosed mouse; assay type: ADME, organism-based; conditions: in vivo
[33] = Tmax in mouse at 100 mg/kg, po; assay type: ADME, organism-based; conditions: in vivo

SMILES: C[C@H]1[C@H](OC(=O)CCC(=O)OCCCCOC(=O)c2cc(O)c3c(c2)C(=O)c2cccc(O)c2C3=O)O[C@@H]2O[C@@]3(C)CC[C@H]4[C@H](C)CC[C@@H]1[C@@]24OO3
- Activity [1]: Non-toxic
- half-life [2]: 5.15 h
- Activity [3]: Non-toxic
- Activity (4T1 [4]): Active
- IC50 (A549): 2790 nM
- Activity (4T1 [5]): Active
- Activity [6]: Non-toxic
- Activity (4T1 [7]): Active
- AUC(0-t) at 72 h [8]: 11500 ng·h/mL
- IC50 (MCF7): 1900 nM
- Ratio IC50 (4T1 [9]): 3
- Activity (4T1 [10]): 0.27%
- MRT inf [11]: 7.67 h
- Activity [12]: Non-toxic
- Activity (4T1 [13]): Active
- Activity (4T1 [14]): 15.4%
- Activity (4T1 [15]): 34.8%
- Activity (4T1 [16]): 12.3%
- Activity (4T1 [17]): Active
- Activity (4T1 [17]; record 2): 32.82%
- Activity (4T1 [18]): Active
- Activity [19]: Non-toxic
- Activity (4T1 [20]): Active
- Activity [21]: Non-toxic
- Activity (4T1 [22]): Active
- Activity [23]: Non-toxic
- Activity (4T1 [24]): Active
- Activity (4T1 [25]): Active
- Activity (4T1 [26]): 42.5%
- Activity [27]: Non-toxic
- Activity (4T1 [28]): 20%
- Activity [29]: Non-toxic
- Activity (4T1 [30]): Active; Compound Triggers Repolarization By Reversing The Ratio Of M2 To M1 Macrophages
- Activity (4T1 [31]): 79.15%
- IC50 (U-87 MG): 2140 nM
- Tmax [32]: 0.17 h
- Tmax [33]: 3 h
